The values that follow come from US20240082196A1, “COMBINED USE OF UBENIMEX AND IMMUNE CHECKPOINT INHIBITOR” (NIPPON KAYAKU KABUSHIKI KAISHA, priority 2021, published 2024).

The test system of data set [1] is mouse colon adenocarcinoma cells MC38. Put plainly: antitumor effect in MC38 subcutaneous transplantation model. It counts as in vivo. The following applies: 25 days after transplantation. As to the method:
The antitumor effect of the combined administration of ubenimex and the anti-mouse PD-1 antibody was evaluated with a subcutaneous transplantation model of the mouse colon adenocarcinoma cells MC38.
Then, 1×10^5 MC38 cells were subcutaneously transplanted into female C57BL/6N mice (Charles River Laboratories Japan, Inc.) to produce the subcutaneous transplantation model. Ubenimex was orally administered to each subcutaneous transplantation model mouse of MC38 in a dosage of 0.5 or 5 mg/kg once a day, 24 times in total, from the day following the transplantation to 24 days after the transplantation. Furthermore, the anti-mouse PD-1 antibody was intraperitoneally administered in a dosage of 50 μg/body 7, 11, 14, 18, 21, and 24 days after the transplantation. […]
The major axis and the minor axis of the tumors were measured with a digital micrometer caliper (Mitutoyo Corporation), and the tumor volumes (mm 3) were calculated by the expression “major axis×minor axis^2/2”. The relative tumor volume (T/C) of each treated group to the control group was calculated by the expression “average tumor volume of the test substance-treated group/average tumor volume of control group×100” using the tumor volume value 25 days after the transplantation. […]

The test system of data set [2] is mouse melanoma cells B16-F0. Put plainly: antitumor effect in B16-F0 subcutaneous transplantation model. It counts as in vivo. Particulars: 15 days after transplantation. How it is done: The antitumor effect of the combined administration of ubenimex and the anti-mouse PD-1 antibody was evaluated with a model in which the mouse melanoma cells B16-F0 were subcutaneously transplanted. Fluctuation in cytokines and immune system markers was confirmed at the same time.
First, 2×10^5 B16-F0 were subcutaneously transplanted to female C57BL/6N mice (Charles River Laboratories Japan, Inc.) to produce a subcutaneous transplantation model.
Ubenimex was orally administered to subcutaneous transplantation model B16-F0 mice once a day, 14 times in total, in a dosage of 5 or 50 mg/kg from the day following the transplantation to 14 days after transplantation. Furthermore, an anti-mouse PD-1 antibody was intraperitoneally administered in a dosage of 200 μg/body 4, 7, 11, and 14 days after the transplantation. […]
The major axis and the minor axis of the tumors were measured with a digital micrometer caliper (Mitutoyo Corporation), and the tumor volumes (mm 3) were calculated by the expression “major axis×minor axis^2/2”. The relative tumor volume (T/C) of each treated group to the control group was calculated by the expression “average tumor volume of the test substance-treated group/average tumor volume of control group×100” using the tumor volume value 15 days after the transplantation. […]

A further data set has as its system Tregs. Put plainly: immunophenotyping of lymphocytes in peripheral blood by flow cytometry, B16-F0 model. Particulars: ubenimex alone. Format: in vivo, mouse. As to the method: The blood collected by the autopsies after the confirmation of the antitumor effects was analyzed for lymphocytes in peripheral blood by flow cytometry.
The peripheral blood was subjected to hemolysis treatment with a Lysing Buffer to prepare peripheral blood mononuclear cells (PBMCs), the Fc receptors were then blocked with the anti-mouse CD16/32 antibody, and the cell surface markers CD45, CD3, CD4, CD8, and CD25 were stained. The PBMCs were fixed and permeabilized, and the nuclear factor FOXP3 was stained, and measurement was performed with the flow cytometer LSRII (Becton, Dickinson and Company).
Tregs identified using CD45+, CD3+, CD4+, CD25+, and FOXP3+ were used as indices for evaluation. The existence rate of Tregs in CD45-positive cells was calculated, and the number of Tregs per 1 μL of the peripheral blood was calculated from the value of the total white blood cell count.

Data set [3] is described as follows: mouse blood concentration transition, single oral administration. Particulars: for AUC(0-inf) / Cmax / MRT inf / Tmax: fasted female C57BL/6N mice, plasma. It counts as in vivo. How it is done: First, 9 nine-week-old fasted female C57BL/6N mice (Charles River Laboratories Japan, Inc.) in each group were subjected to the single oral administration of 5 mg/kg or 50 mg/kg of ubenimex. Blood collecting time points were 9 time points that were time points 5, 10, and 30 minutes, 1, 3, 6, 8, 12, and 24 hours after the administration. Then, 0.1 mL of blood was collected from the jugular vein under isoflurane anesthesia from 5 minutes to 6 hours after the administration, and the whole blood was collected from the vena cava under isoflurane anesthesia 8 hours or more after the administration. To secure n=3 at each time point, the blood collection was sparse blood collection in which blood was collected from one individual at 3 time points, and three animals were replaced as one set. Plasma was prepared from the obtained blood, and the plasma ubenimex concentration was measured with a liquid chromatography mass spectrometer (LC/MS/MS).

The mark [4] stands for this setting: ubenimex 5 mg/kg oral once daily.

SMILES strings stand for the structures.

In the case of `CC(C)C[C@H](NC(=O)[C@@H](O)[C@H](N)Cc1ccccc1)C(=O)O` [ubenimex, (2S)-2-[(2S,3R)-3-amino-2-hydroxy-4-phenylbutanoylamino]-4-methylpentanoic acid], the “relative average tumor volume (T/C) to the control group” value (“relative average tumor volume (T/C)” for short) in data set [1] (ubenimex 0.5 mg/kg oral once daily) came to 62%. In addition, in data set [1] (setting [4]), the “relative average tumor volume (T/C)” value is given as 51%. In data set [2] (setting [4]), the “relative average tumor volume (T/C)” value was “did not exhibit tumor growth inhibition effect”. Also, the “relative average tumor volume (T/C)” value in data set [2] (ubenimex 50 mg/kg oral once daily) was “did not exhibit tumor growth inhibition effect”. Also, the “numbers of Tregs in the peripheral blood” value with Tregs is “no change”. The dosage proportionality result in data set [3] (dosage of 5 to 50 mg/kg in the mouse) is recorded as “dosage proportionality was generally obtained”. Besides, in data set [3] (mouse, 5 mg/kg single oral), the total exposure AUC(0-inf) was 3240 ng·h/mL, the maximum concentration (Cmax) was found to be 4600 ng/mL, the MRT inf is 52.3 min and the Tmax was 4.98 min. In data set [3] (mouse, 50 mg/kg single oral), the AUC(0-inf) was determined as 47700 ng·h/mL, the maximum concentration (Cmax) turned out to be 44000 ng/mL, the MRT inf is 55.1 min and the Tmax was 10.2 min. Further, in data set [3] (single oral, mouse), the “AUCinf, ratio of 50 mg/5 mg” value stood at 14.7 times; the “Cmax, ratio of 50 mg/5 mg” value stood at 9.57 times; the “MRTinf, ratio of 50 mg/5 mg” value is given as 1.05 times.

As a reminder, the AUC(0-inf) is the area under the concentration-time curve extrapolated to infinity. Read a low AUC(0-inf) as less exposure. As usually defined, the Cmax is the maximum level reached in the sampled fluid or tissue. What is called MRT inf is the average time that molecules of a dose stay in the body. The Tmax is the time from dosing to the highest level.
